Test results: paper PMC9253215, “A new strategy: identification of specific antibodies for neutralizing epitope on SARS-CoV-2 S protein by LC-MS/MS combined with immune repertoire” (Molecular Biomedicine, 2022)
Ends that are not written are not given here.

Columns and labels:
SARS-CoV-2 pseudovirus = type: cell-based
S1 protein = target: T1, S1 protein (Severe acute respiratory syndrome coronavirus 2, UniProt P0DTC2); assay: biochemical; type: binding, SARS-CoV-2
T1 construct: Purified S1 protein was first immobilized on a series S sensor chip protein A; purchased OkayBio

| Sequence | neutralizing ability by pseudovirus neutralizing assay (SARS-CoV-2 pseudovirus) | neutralizing ability by authentic virus neutralization assays (SARS-CoV-2) | neutralizing activity against SARS-CoV-2 by IFA assay (SARS-CoV-2) | IC50 (SARS-CoV-2; 24 h) [mg/mL] | Kd (S1 protein) [µM] |
| --- | --- | --- | --- | --- | --- |
| ARERADDYSNYCWFDP [CDR3 peptide 12] | showed neutralizing ability | showed neutralizing ability | obvious neutralizing activity |  |  |
| VRYSPEPAVLITEGYFD [CDR3 peptide 4] | showed neutralizing ability | showed neutralizing ability | modestly lower neutralizing activity |  |  |
| EAWDVDNRVFGGGTR [CDR3 peptide 51] |  |  | obvious neutralizing activity | 1.25 to 2.5 |  |
| YYCQQYDNLSGT [CDR3 peptide 44] | showed neutralizing ability | showed neutralizing ability | modestly lower neutralizing activity |  |  |
| AKDFRQYCSSTTCYDLDY [CDR3 peptide 21] | showed neutralizing ability | showed neutralizing ability | obvious neutralizing activity |  |  |
| TTDRYQLLWAG [CDR3 peptide 22] | showed neutralizing ability | showed neutralizing ability | obvious neutralizing activity |  |  |
| ARESLYDFDGSGYVDALDV [CDR3 peptide 11] |  |  |  |  | 0.262 |
| ARDVSSLYGGNSDDY [CDR3 peptide 24] |  |  | no neutralizing activity |  |  |
| VRERISYFDHWGQG [CDR3 peptide 53] |  |  | obvious neutralizing activity |  |  |
| YYCQSYDSSNVV [CDR3 peptide 47] | showed neutralizing ability | showed neutralizing ability | modestly lower neutralizing activity |  |  |
| ARDIVVPAAMGEIGGWFDP [CDR3 peptide 16] |  |  |  |  | 24.1 |
